# How the values were obtained:
# Lewis rats = experiment: Induction of EAE in Lewis rats by immunization with peptide in CFA; assay type: in vivo, rat; conditions: for EAE Incidence (# affected animals/total # animals injected) / EAE severity score (in parentheses): Table IV, dose not given; for EAE Severity (mean group severity, max. = 3.0) / EAE Incidence: Lewis rats; for EAE severity score (in parentheses): max. = 3.0; for Encephalitogenic activity in LEW rats (in words): peptide in CFA, s.c.
# Protocol: Peptides were administered subcutaneously to LEW rats at 5 μg or 50 μg doses in the standard manner. Eight- to twelve-week-old female Lewis rats (purchased from Charles River, Raleigh, N.C.) were immunized subcutaneously at the hind footpad with the appropriate synthetic peptide, emulsified in complete Freund's adjuvant (CFA, Difco, Detroit, Mich.). […] Animals were followed for 21 days post-immunization. Hematoxylin-eosin-stained and toluidine blue-stained spinal cord sections from representative rats were examined for inflammatory cell infiltration and demyelination without knowledge of the group of origin.
# [1] = tested on: T cells from rats immunized with the chlamydial peptide; experiment: T cell proliferation assay (3H-thymidine), Cpn0483-primed T cells; assay type: cell-based, rat; conditions: for Proliferation of peptide-primed T cells in response to irrelevant peptide: specificity control, priming peptide not specified; for Proliferative response of Cpn0483-primed T cells to peptide: 96 hr culture with irradiated thymocytes as APCs, FIG. 3
# Protocol: (§1) To further investigate the immunopathology underlying the clinical observations, T cells were isolated from the spleens of rats immunized with Cpn0483 or MBP68-86, and recall responses were assessed using standard T cell proliferation assays.
# (§2) Briefly, splenocytes were isolated from peptide-primed rats, adherent cells were removed by culture on plastic Petri dishes, and T cells were isolated on T cell columns (Biotec, Edmonton, Canada). The T cells were cultured for 96 hr with irradiated (2000rad) syngeneic thymocytes as antigen presenting cells (APCs), and peptide, in 96-well flat-bottom microtiter plates. The cultures were pulsed with ^3H-thymidine (0.5 μCi/well) 18 hr prior to harvesting cells, and 3H-thymidine incorporation was measured in a liquid scintillation counter (Wallac 1450 Microbeta Plus, Gaithersburg, Md.). Cultures were run in quadruplicate and each experiment was repeated at least twice. Dose-response studies were performed using various peptides at differing concentrations, and representative results are presented.
# [2] = tested on: syngeneic recipients (LEW rats); experiment: Transfer of EAE with peptide-activated spleen cells from Cpn0483-immunized rats; assay type: in vivo, rat; conditions: Cpn0483-primed spleen cells activated in vitro with the named peptide for 72 hr
# Protocol: Both are characteristic pathological findings in the rat model of EAE (Zamvil et al., supra; Swanborg, 1995, supra) and are also observed in MS (Raine et al., 1999, supra). […] This feature is prominent in MS, but is not characteristic of acute EAE in LEW rats. When spleen cells were prepared from Cpn0483-immunized LEW rats with EAE and activated in vitro with the same peptide for 72 hr, they transferred clinical disease to 6 of 9 syngeneic recipients. Six of 9 recipients of Cpn-primed spleen cells activated with MBP68-86 also developed clinical EAE. Mononuclear infiltration was present in the spinal cords of recipients with clinical disease, as expected.
# [3] = tested on: T cells derived from rats immunized with rat MBP68-86; experiment: T cell proliferation assay (3H-thymidine), rat MBP68-86-primed T cells; assay type: cell-based; conditions: 96 hr culture with irradiated thymocytes as APCs, FIG. 4
# Protocol: as §1, §2
# [4] = tested on: short-term T cell line from Cpn0483 peptide-immunized rats; experiment: Cytokine secretion by short-term T cell line (ELISA); assay type: cell-based, rat; conditions: activated for 72 hr with the chlamydial peptide
# Description: It has been well established that EAE in rodents is mediated by IFN-γ-producing Th1 inflammatory cells ((Zamvil et al., supra; Swanborg, supra; R. B. Smeltz et al., J. Immunol. 162, 829 (1999)).
# [5] = 5 μg peptide s.c. in CFA, affected/total
# [6] = 50 μg peptide s.c. in CFA, Table 2
# [7] = 50 μg peptide s.c. in CFA, affected/total, Table 2
# [8] = groups given either dose (5 μg or 50 μg)
Substance,EAE Incidence (# affected animals/total # animals injected) (Lewis rats),"EAE Incidence (Lewis rats; Incidence at 50 μg, Table 3)",EAE severity score (in parentheses) (Lewis rats),Encephalitogenic activity in LEW rats (in words) (Lewis rats),"EAE Severity (mean group severity, max. = 3.0) (Lewis rats; [6])",EAE Incidence (Lewis rats; [7]),other results
HYGCLLPRNPRTED (listed as Chlamydia pneumoniae) [N4/C2 truncated],0/5,–,–,–,–,–,–
"MBP11-30: irrelevant nonencephalitogenic peptide (SAEKASKDGEIHRGEAGKKR; UniProt P04370 11-30, looked up, fragment)",–,–,–,–,–,–,Proliferation of peptide-primed T cells in response to irrelevant peptide [1]: lack of proliferation
"MBP31-50: irrelevant nonencephalitogenic peptide (SVGKLSQTASEDSDVFGEAD; UniProt P04370 31-50, looked up, fragment)",–,–,–,–,–,–,Proliferation of peptide-primed T cells in response to irrelevant peptide [1]: lack of proliferation
NHYGCLLPRNPRTED (listed as Chlamydia pneumoniae) [N3/C2 truncated],0/5,–,–,–,–,–,–
PNHYGCLLPRNPRTEDQN (listed as Chlamydia pneumoniae) [N2—truncated],0/5,–,–,–,–,–,–
RFPNHYGCLLPRNPR (listed as Chlamydia pneumoniae) [C5—truncated],0/5,–,–,–,–,–,–
RFPNHYGCLLPRNPRTEAQN (listed as Chlamydia pneumoniae) [Cpn D>A],9/10,9/10,2.7,elicited severe EAE,–,–,"EAE Severity (mean group severity, max. = 3.0) (Lewis rats; 50 μg, Table 3): 2.7"
"RFPNHYGCLLPRNPRTEDQN (listed as Chlamydia pneumoniae) [Cpn0483, 20-mer peptide near the C-terminus of C. pneumoniae protein Cpn0483]",5/5,5/5,3.0,encephalitogenic,2.3,14/15,"Proliferative response of Cpn0483-primed T cells to peptide [1]: respond to priming peptide; Proliferative response of Cpn0483-primed T cells to peptide ([1]; listed as chlamydial peptide): responded vigorously; Recipients developing clinical EAE after cell transfer [2]: 6 of 9; Proliferative response of rat MBP68-86-primed T cells to peptide [3]: cross-reacted only minimally; Proliferative response of rat MBP68-86-primed T cells to peptide ([3]; listed as chlamydial peptide): cross-react; IFN-γ secreted [4]: 7,000 pg/ml; IL-4 production [4]: did not produce detectable IL-4; EAE Severity (mean group severity, max. = 3.0) (Lewis rats; 5 μg peptide s.c. in CFA): 1.8; EAE Incidence (Lewis rats; [5]): 3/5; EAE Severity (mean group severity, max. = 3.0) (Lewis rats; 50 μg, Table 3): 3.0; Demyelination in spinal cord sections (Lewis rats; Luxol fast blue-stained sections): Significant demyelination was not observed; Initial clinical signs of EAE, time post-immunization (Lewis rats; [8]): approximately 12 days; Persistence of clinical signs of EAE (Lewis rats; [8]): 3 to 6 days; Encephalitogenic activity in LEW rats (in words) (Lewis rats; listed as chlamydial peptide): as effective as guinea pig or rat MBP68-86 peptide in causing paralysis; Spinal cord inflammatory cell infiltration (histology) (Lewis rats; spinal cords of immunized rats): Extensive perivascular cuffing and parenchymal mononuclear cell infiltration"
RFPNHYGSLLPRNPRTEDQN (listed as Chlamydia pneumoniae) [Cpn0483 C > S],8/10,–,2.4,lack of effect,2.2,4/5,"EAE Severity (mean group severity, max. = 3.0) (Lewis rats; 5 μg peptide s.c. in CFA): 2.4; EAE Incidence (Lewis rats; [5]): 4/5"
YGCLLPRNPRTEDQN (listed as Chlamydia pneumoniae) [N5—truncated],0/5,–,–,–,–,–,–
"YGSLPQKSORTQAENPV (YGSLPQKSQRSQAENPV; listed as Rattus sp.) [MBP D>A, reference compound]",–,0/10,–,abolished encephalitogenic activity,–,–,–
"YGSLPQKSQRSQDENPV (Guinea pig) [gp68-86, guinea pig myelin basic protein peptide 68-86, reference compound]",–,–,–,induced clinical disease with comparable severity and time course,3.0,5/5,–
"YGSLPQKSQRTQDENPV (listed as Rattus sp.) [rat68-86, rat myelin basic protein peptide 68-86, reference compound]",5/5,5/5,3.0,induced clinical disease with comparable severity and time course,2.7,10/10,"Proliferative response of Cpn0483-primed T cells to peptide ([1]; listed as rat MBP68-86): responded significantly; Proliferative response of Cpn0483-primed T cells to peptide ([1]; listed as ratMBP68-86): cross-react; Recipients developing clinical EAE after cell transfer [2]: Six of 9; Proliferative response of rat MBP68-86-primed T cells to peptide ([3]; listed as rat MBP68-86): proliferated vigorously; Proliferative response of rat MBP68-86-primed T cells to peptide ([3]; listed as ratMBP68-86): respond to priming peptide; EAE Severity (mean group severity, max. = 3.0) (Lewis rats; 50 μg, Table 3): 3.0"

# From patent US20040038920A1, “Chlamydial peptides and their mimics in demyelinating disease” (priority 2003, published 2004)
